Test results reported in paper doi:10.1101/2021.06.08.447613v1 (biorxiv, 2021).

Molecular target: M^Pro (SARS-CoV-2 main protease) (Severe acute respiratory syndrome coronavirus 2, UniProt P0DTD1)
Assay: fluorogenic peptide substrate cleavage, […] min preincubation
Type: biochemical
Details: pH 7.6, 37 °C, 50 nM enzyme, 10 μM substrate

Q: `CCN(CC)CCCC(C)Nc1ccnc2cc(Cl)ccc12` (stereo not shown) [chloroquine] was tested. Which “% activity retained at 16 μM” value did it give?
A: Its value is 84%.
